According to US4163844A, “Nitrogen-containing heterocyclic compounds” (Yamanouchi Pharmaceutical Co., Ltd., priority 1976, dated 1979):

What was measured:
[1] = tested on: acetic acid-induced writhings; test: Whittle's method: acetic acid-induced writhings; type: in vivo, Male ICR-Mice
Description: (§1) Male ICR-Mice (weighting 25-35 g.), one group being 12 mice, fasted overnight were used in this test. The sample was orally administered, and 20 minutes after, 5 ml./Kg. of 0.4% Evance blue was injected intravenously and further 10 minutes after, 10 ml./Kg. of 0.6% acetic acid was injected intraperitoneally. The number of writhings after 20 minutes since the administration of acetic acid was recorded and further 10 minutes after since then, the mice were killed by dislocation of the neck, the dye leaked in the abdominal cavity was washed out with 5 ml. of 0.9% saline to make the total amount 10 ml., and thereafter furs, blood corpuscles, etc., intermingled were removed by centrifugal separation at 3,000 r.p.m. for 5 minutes. Furthermore, for preventing turbidity caused by protein, 0.1 ml. of an aqueous 0.1 normal sodium hydroxide was added and then the absorbance at 590 nm was measured. The inhibition ratio of the sample administered rat groups to control groups was calculated.
(§2) In addition, the test samples used in the aforesaid tests (a), (b), (c) and (d) were prepared by suspending the test compounds, in the cases of using the compounds of Test Nos. 1-12 and phenylbutazone, in an aqueous 0.5% methyl cellulose solution, dissolving the test compounds, in the cases of using aminopyrine, in distilled water.

[2] = tested on: Permeability (dye leakage into abdominal cavity); test: Whittle's method: permeability (dye leaked in the abdominal cavity); type: in vivo, Male ICR-Mice
Description: as §1, §2

[3] = tested on: Hyperthermia caused by Brewer's yeast; test: Antipyretic effect (Brewer's yeast hyperthermia); type: in vivo, Male Wister rats; set-up: key: rectal body temperature in °C; conditions: in °C (unit assumed)
Description: Male Wister rats (weighting 130-150 g.), one group being 5 rats, were used. Hyperthermia was caused by subcutaneous injection of 2 ml./rat of 20% Brewer's yeast suspension. 18 hours later, the rats showing a rise in temperature exceeding 1° C. were selected and allocated into groups each consisting of 5 rats. The sample was orally administered and then the body temperature was measured with the passage of time for 6 hours since then. In addition, the body temperature was measured by measuring the temperature in the rectum by means of a thermister thermometer.
as §2

[4] = Acute toxicity; type: in vivo, Male Wister rats; conditions: 500 mg/kg oral, observed 7 days; deaths/animals
Description: Male Wister rats (weighting 130-170 g.), one group being 5 rats, fasted overnight were used in this test.
as §2

[5] = tested on: Carrageenin-induced edema; test: Carrageenin-induced edema (Winter's method); type: in vivo, Male Wister rats; conditions: oral, one hour before carrageenin, edema 3 hours after injection
Description: Male Wister rats (weighting 130-170 g.), one group being 6 rats, fasted overnight were used. According to Winter's method [Proc. Soc. […] After 3 hours, each rat was sacrificed by chloroform and the hind paw was cut and weighed immediately. By using the value obtained by subtracting the weight of the untreated hind paw from the weight of the hind paw having injected thereto the carrageenin as the weight of edema, the inhibitory ratio of the sample administered rat groups to control groups was calculated. The sample was orally administered before one hour of the injection of carrageenin.
as §2

[6] = 1 hour, 50mg/kg P.O., * significantly different from before administration (P<0.05)
[7] = 2 hours, 50mg/kg P.O., * significantly different from before administration (P<0.05)
[8] = 4 hours, 50mg/kg P.O., * significantly different from before administration (P<0.05)
[9] = 6 hours, 50mg/kg P.O., * significantly different from before administration (P<0.05)
[10] = before administration, group dosed 50mg/kg P.O.

Row | Compound | Inhibition, Writhings ([1]; 50mg/kg P.O.) [%] | Inhibition, Permeability ([2]; 50mg/kg P.O.) [%] | Inhibition (carrageenin-induced edema) ([5]; 25 mg/kg) [%] | Inhibition (carrageenin-induced edema) ([5]; 50 mg/kg) [%] | also measured
1 | Cc1c(N(C)C)c(=O)n(-c2ccccc2)n1C [Aminopyrine, reference compound] | 58.1 | 41.7 | – | – | Inhibition, Writhings ([1]; 25mg/kg P.O.): 29.6%; Inhibition, Permeability ([2]; 25mg/kg P.O.): 28.5%; Rectal temperature (mean±SE) [3, 6]: 37.92±0.09; Rectal temperature (mean±SE) [3, 7]: 37.49±0.10; Rectal temperature (mean±SE) [3, 8]: 37.39±0.07; Rectal temperature (mean±SE) [3, 9]: 37.76±0.19; Rectal temperature (mean±SE) [3, 10]: 39.24±0.14
2 | O=c1c2ccccc2cc2n1CCC[S+]2[O-] (stereo not drawn) [Test No. 5] | – | – | – | – | Number of death [4]: 3/5
3 | 5-oxo-2,3-dihydro-5H-thiazolo[3,2-b]isoquinoline-1,1-dioxide [Example 8] | – | 23.5 | 57.5 | – | –
4 | 2-acetoxy-5-oxo-2,3-dihydro-5H-thiazolo[3,2-b]isoquinoline [Example 9] | 82.9 | – | 53.4 | – | –
5 | CCCCC1C(=O)N(c2ccccc2)N(c2ccccc2)C1=O [Phenylbutazone, reference compound] | – | – | 29.4 | 44.5 | –
6 | O=c1c2ccccc2cc2n1CCCS2 [Test No. 1] | – | – | 54.8 | 69.8 | Rectal temperature (mean±SE) [3, 6]: 38.72±0.13; Rectal temperature (mean±SE) [3, 7]: 38.20±0.15; Rectal temperature (mean±SE) [3, 8]: 37.39±0.23; Rectal temperature (mean±SE) [3, 9]: 37.44±0.32; Rectal temperature (mean±SE) [3, 10]: 39.26±0.19
7 | CC1CSc2cc3ccccc3c(=O)n21 (stereo not drawn) [Test No. 3] | – | – | – | – | Number of death [4]: 3/5
8 | 5-oxo-5H-thiazolo[3,2-b]isoquinoline [Example 10] | 91.6 | 32.4 | 58.0 | – | –
9 | 6-oxo-2,3-dihydro-2H,6H-1,3-oxazino[3,2-b]isoquinoline [Example 2] | 14.4 | 20.1 | 41.7 | 71.2 | Inhibition, Writhings ([1]; 25mg/kg P.O.): 22.6%; Inhibition, Permeability ([2]; 25mg/kg P.O.): 4.7%
10 | O=c1c2ccccc2cc2n1CC[S+]2[O-] (stereo not drawn) [Example 4, 5-oxo-2,3-dihydro-5H-thiazolo[3,2-b]isoquinoline-1-oxide] | 39.7 | 41.1 | 41.2 | 65.1 | Inhibition, Writhings ([1]; 25mg/kg P.O.): 29.1%; Inhibition, Permeability ([2]; 25mg/kg P.O.): 22.1%
11 | O=Cc1c2n(c(=O)c3ccccc13)CCCS2 [Test No. 11] | – | – | 45.9 | – | –
12 | 3-methyl-5-oxo-2,3-dihydro-5H-thiazolo[3,2-b]isoquinoline [Example 1] | 57.8 | 21.3 | – | – | Inhibition, Writhings ([1]; 25mg/kg P.O.): 24.8%; Inhibition, Permeability ([2]; 25mg/kg P.O.): 26.2%
13 | 6-oxo-3,4-dihydro-2H,6H-1,3-thiazino[3,2-b]isoquinoline-1,1-dioxide [Example 7] | 69.5 | 38.6 | 57.0 | – | –
14 | O=c1c2ccccc2cc2n1CCCS2(=O)=O [Test No. 2] | – | – | – | – | Rectal temperature (mean±SE) [3, 6]: 39.04±0.23; Rectal temperature (mean±SE) [3, 7]: 38.41±0.21; Rectal temperature (mean±SE) [3, 8]: 37.32±0.31; Rectal temperature (mean±SE) [3, 9]: 37.55±0.33; Rectal temperature (mean±SE) [3, 10]: 38.94±0.14
15 | 5-oxo-5H-thiazolo[3,2-b]isoquinoline-1,1-dioxide [Example 5] | – | 36.0 | 55.3 | 67.2 | Inhibition, Permeability ([2]; 25mg/kg P.O.): 22.6%
16 | 6-oxo-3,4-dihydro-2H,6H-1,3-thiazino[3,2-b]isoquinoline-1-oxide [Example 6] | 28.8 | 37.1 | 57.1 | – | –
17 | 6-oxo-3,4-dihydro-2H,6H-1,3-thiazino[3,2-b]isoquinoline [Example 3] | 67.5 | 37.0 | 47.0 | 74.0 | –
